≈ marks a conversion by molar mass, not a printed value. Structures can show the parent of a compound that is named as a salt. Where two headings read alike, the source gives them in different places.
Test system: Treponema hyodysenteriae
Assay: in vitro Streak Plate Test Method (inhibition endpoint / MIC on trypticase soy blood agar)
Assay type: cell-based
Details: for MIC: Brachyspira hyodysenteriae, 48 h; for MIC / Inhibition Endpoints: first number = growth occurred, second = no growth, 48 hrs at 39°C anaerobic
Experimental: The following test procedure was used to evaluate the anti-Treponema hyodysenteriae activity of the compounds in the present invention. This test procedure establishes the lowest concentration of the compounds that will inhibit the growth on cultures of Treponema hyodysenteriae in an in vitro Streak Plate Test Method.
Procedure: Stock solutions containing 10,000, 1,000, 100, 10, 1.0, and 0.1, micrograms per milliliters of the compound to be tested were prepared. The final dilutions to establish the test concentrations in the media were made by placing the correct volume of stock solution in a petri dish, adding the media (trypticase soy blood agar), and mixing before the media solidified. After the media solidified, the test cultures of Treponema hyodysenteriae were streaked onto the surface of the agar. Petri dishes containing media without test samples were also set up as culture controls and are inoculated in the same manner. All inoculated plates were incubated at 39°C in anaerobic jars for 48 hrs. Inhibition endpoints were then determined by observing the test plates for growth or no growth of the test cultures at the various concentrations of the compounds. If the culture growth occured at one concentration but not at the next higher concentration, the inhibitory endpoint or MIC (Minimum Inhibitory Concentration) was considered the higher concentration.
Referring to Table 1, the culture numbers refer to field isolate strains of Treponema hyodysenteriae. These field isolates were isolated in Illinois, Iowa, and Nebraska. The numbers giving the results in the Table are read as follows: the first number for each isolate and compound tested corresponds to the concentration in micrograms per milliliter where growth occurred and the second number corresponds to the concentration in micrograms per milliliter where no growth occurred.

[1] = Culture No. 8064 (field isolate)
[2] = Culture No. 8072 (field isolate)
[3] = Culture No. 8076 (field isolate)
[4] = Culture No. 8080 (field isolate)
[5] = Culture No. 8087 (field isolate)
[6] = Culture No. 8098 (field isolate)
[7] = Culture No. 8125 (field isolate)
[8] = Culture No. B-100 (field isolate)
[9] = Culture No. B-140 (field isolate)

Compound | Inhibition Endpoints [1] | Inhibition Endpoints [2] | Inhibition Endpoints [3] | Inhibition Endpoints [4] | Inhibition Endpoints [5] | Inhibition Endpoints [6] | Inhibition Endpoints [7] | Inhibition Endpoints [8] | Inhibition Endpoints [9] | other results
CCC(C(=O)C(C)C(O)C(C)CCc1ccc(C)c(O)c1C(=O)O)C1OC(CC)(C2CCC(O)(CC)C(C)O2)CC1C (centres unmarked) [Lasalocid Na, reference compound] |  |  |  |  |  |  |  |  |  | MIC (Culture No. 8064 (field isolate), read-out: Inhibition Endpoints): 1 to 5 µg/mL (≈ 1.69 to 8.46 µM); MIC (Culture No. 8072 (field isolate), read-out: Inhibition Endpoints): 1 to 5 µg/mL (≈ 1.69 to 8.46 µM); MIC (Culture No. 8076 (field isolate), read-out: Inhibition Endpoints): 1 to 5 µg/mL (≈ 1.69 to 8.46 µM); MIC (Culture No. 8080 (field isolate), read-out: Inhibition Endpoints): 0.5 to 1 µg/mL (≈ 0.846 to 1.69 µM); MIC (Culture No. 8087 (field isolate), read-out: Inhibition Endpoints): 1 to 5 µg/mL (≈ 1.69 to 8.46 µM); MIC (Culture No. 8098 (field isolate), read-out: Inhibition Endpoints): 1 to 5 µg/mL (≈ 1.69 to 8.46 µM); MIC (Culture No. 8125 (field isolate), read-out: Inhibition Endpoints): 1 to 5 µg/mL (≈ 1.69 to 8.46 µM); MIC (Culture No. B-100 (field isolate), read-out: Inhibition Endpoints): 0.5 to 1 µg/mL (≈ 0.846 to 1.69 µM); MIC (Culture No. B-140 (field isolate), read-out: Inhibition Endpoints): 1 to 5 µg/mL (≈ 1.69 to 8.46 µM)
CCC[C@@H]1C[C@@H](C(=O)N[C@@H]([C@H]2O[C@H](SC)[C@H](O)[C@@H](O)[C@H]2O)[C@@H](C)O)N(C)C1 [Lincomycin HCL, reference compound] |  |  |  |  |  |  |  |  |  | MIC (read-out: Inhibition Endpoints, Culture No. 8064 (field isolate)): 10 to 50 µg/mL; MIC (read-out: Inhibition Endpoints, Culture No. 8072 (field isolate)): 10 to 50 µg/mL; MIC (read-out: Inhibition Endpoints, Culture No. 8076 (field isolate)): 10 to 50 µg/mL; MIC (read-out: Inhibition Endpoints, Culture No. 8080 (field isolate)): 10 to 50 µg/mL; MIC (read-out: Inhibition Endpoints, Culture No. 8087 (field isolate)): 10 to 50 µg/mL; MIC (read-out: Inhibition Endpoints, Culture No. 8098 (field isolate)): 10 to 50 µg/mL; MIC (read-out: Inhibition Endpoints, Culture No. 8125 (field isolate)): 10 to 50 µg/mL; MIC (read-out: Inhibition Endpoints, Culture No. B-100 (field isolate)): 1 to 5 µg/mL; MIC (read-out: Inhibition Endpoints, Culture No. B-140 (field isolate)): 0.05 to 0.1 µg/mL
Carriomycin Na [reference compound] | .01-.05 µgs/ml | <.01 µgs/ml | <.01 µgs/ml | .01-.05 µgs/ml | .01-.05 µgs/ml | <.01 µgs/ml | <.01 µgs/ml |  |  | activity compared to the controls (summary of Table 1): comparable activity
Co Lysocellin | .05-.1 µgs/ml | <.01 µgs/ml | .05-.1 µgs/ml | .05-.1 µgs/ml | .05-.1 µgs/ml | .05-.1 µgs/ml | <.01 µgs/ml | <.01 µgs/ml | <.01 µgs/ml | 
Cu Lysocellin | .1-.5 µgs/ml | .05-.1 µgs/ml | .05-.1 µgs/ml | .1-.5 µgs/ml | .1-.5 µgs/ml | .05-.1 µgs/ml | .1-.5 µgs/ml | .1-.5 µgs/ml | .1-.5 µgs/ml | 
Lysocellin Free Acid | .1-.5 µgs/ml | .01-.05 µgs/ml | <.01 µgs/ml | .1-.5 µgs/ml | .05-.1 µgs/ml | .05-.1 µgs/ml | .01-.05 µgs/ml | .01-.05 µgs/ml | .01-.1 µgs/ml | 
Lysocellin Na | .1-.5 µgs/ml | .1-.5 µgs/ml | .1-.5 µgs/ml | .1-.5 µgs/ml | .1-.5 µgs/ml | .1-.5 µgs/ml | .1-.5 µgs/ml | .1-.5 µgs/ml | .1-.5 µgs/ml | 
Mn Lysocellin | .1-.5 µgs/ml | .1-.5 µgs/ml | .1-.5 µgs/ml | .1-.5 µgs/ml | .1-.5 µgs/ml | .1-.5 µgs/ml | .1-.5 µgs/ml | .1-.5 µgs/ml | .1-.5 µgs/ml | 
Na Zn Lysocellin | 1.0-5.0 µgs/ml | 1.0-5.0 µgs/ml | 1.0-5.0 µgs/ml | .5-1.0 µgs/ml | 1.0-5.0 µgs/ml | .1-.5 µgs/ml | 1.0-5.0 µgs/ml | 1.0-5.0 µgs/ml | 1.0-5.0 µgs/ml | 
Ni Lysocellin | .05-.1 µgs/ml | <.01 µgs/ml | .05-.1 µgs/ml | .1-.5 µgs/ml | .05-.1 µgs/ml | .05-.1 µgs/ml | <.01 µgs/ml | <.01 µgs/ml | <.01 µgs/ml | 
Zn Lysocellin | .1-.5 µgs/ml | .1-.5 µgs/ml | .1-.5 µgs/ml | .1-.5 µgs/ml | .05-.1 µgs/ml | .1-.5 µgs/ml | .05-.1 µgs/ml | .05-.1 µgs/ml | .05-.1 µgs/ml | 
